Experimental data as given in patent EP0551200A1, “Protein phosphatase inhibitors for use in therapy” (priority 1992, dated 1993).

Tested on: WISH cells
Assay: Early protein phosphorylation changes in WISH cells
Format: cell-based, human
Settings: data not shown
Description: Cell Cultures and Reagents - Human diploid fibroblasts, FS-4, 2343 gifts from Dr. J. Vilcek (New York University). They were grown in tissue culture flasks and maintained with minimal essential medium (MEM) supplemented with 10% fetal bovine serum (Hyclone, Logan, UT, US) herein referred to as regular medium. Human WISH cells were purchased from the American Type Culture Collection. Recombinant human TNF and IL-1 with specific activities of 2 x 10⁷ units and 1 x 10⁸ units/mg protein, respectively, and of purities of ≧99% were purchased from Genzyme Corp. (Cambridge, MA, US). Phorbol 12-myristate 13-acetate, bradykinin, forskolin, dibutyryl-cyclic AMP (dBt-cAMP) and FGF were from Sigma, Okadaic acid was purchased from Biomol (Plymouth Meeting, PA, US). Radioactive [³²P]P was from Du Pont-New England Nuclear. […]
Two-dimensional Gel Electrophoresis - The lyophilized fractions (each of approximately 12 µg) were subjected to isoelectric focusing for 18,000 V/h with pH 3-10 ampholytes using the Millipore Investigator two-dimensional electrophoresis system (Millipore). […] Molecular weight marker proteins from Sigma were detected by Coomassie Blue staining and marked on the autoradiogram. ³²P-Labeled 27 hsp complex prepared from human fibroblasts heat shocked at 43°C for 30 min was also used as a marker.

C=C1[C@@H](O)[C@@H]2O[C@]3(CC[C@H](/C=C/[C@@H](C)[C@@H]4CC(C)=C[C@@]5(O[C@H](C[C@@](C)(O)C(=O)O)CC[C@H]5O)O4)O3)CC[C@H]2O[C@@H]1[C@@H](O)C[C@H](C)[C@H]1O[C@@]2(CCCCO2)CC[C@H]1C [okadaic acid]
changes in early protein phosphorylation compared with TNF (in words): almost identical changes
